Data taken from patent US5919761A, “Peptides for heparin and low molecular weight heparin anticoagulation reversal” (The Board of Regents of the University of Michigan, priority 1995, dated 1999).
Peptide text beside a SMILES is read from it.

How the values were obtained:
[1] = tested on: standard, unfractionated heparin; assay: Percent reversal of standard heparin anticoagulation by variant peptides and protamine, in vivo canine study, coagulation tests; set-up: species or system dogs; details: for Percent reversal of heparin anticoagulation, ACT: heparin 150 IU/kg IV, agent 1.5 mg/kg IV over 10 seconds
Protocol: Data are expressed as a mean ±1 SD. Statistical analysis using linear regression for determination of correlation coefficients, and analysis of variance (ANOVA) or unpaired two-way Student's t-test; p<0.05 was accepted as statistically significant.
(§1) Anticoagulation reversal was assessed by a number of standard coagulation tests performed upon samples of venous blood: activated clotting time (ACT), prothrombin time (PT), activated partial thromboplastin time (aPTT), thrombin clotting time (TCT), heparin concentration by assay for FXa inhibitory activity (FXa), white cell count (WBC), and platelet counts (PLT). Measurements were made 3 minutes prior to heparin reversal (baseline) and 3 minutes and 30 minutes post-administration of the heparin reversal agent. The "Heparin" row sets forth the observed reversal as a consequence of expected heparin metabolism or degradation alone.

[2] = Platelet and white cell counts after standard heparin reversal, canine study; format: in vivo; details: dogs, 3 minutes post-reversal, resolved by about 30 minutes
Protocol: as §1

[3] = Platelet count, leukocyte count and bleeding time after LMWH reversal at different rates, canine study; format: in vivo, dogs; details: dogs, Logiparin; administered over 10 sec
Protocol: The anticoagulation-reversing agents were administered rapidly over 10 seconds to maximize hemodynamic effects or more slowly over a 3 minute interval. Changes in LMWH anticoagulation occurring from metabolism alone were determined in a separate group of dogs not given any reversal agent.

[4] = Hemodynamic studies and total toxicity score after standard heparin reversal, canine study; details: dogs; for ΔMAP: average maximum decline in first five minutes after peptide administration; for average total toxicity score (TTS±SD): first 5 minutes after reversal, more negative = more toxic; for ΔCO / ΔVO2: maximum percent change
Protocol: As used hereinafter, the peptides will be identified by their total cationic charge value, e.g., [+8], [+16], etc.
Hemodynamic studies were conducted by measuring mean arterial pressure (MAP), heart rate (HR), and maximum percent changes in cardiac output (CO) and systemic oxygen consumption (VO2).
Total toxicity scores (TTS) were developed that reflected maximum declines in each of four parameters (MAP, CO, VO2 and HR) over the first 5 minutes after reversal, the latter being the time of expected greatest adverse hemodynamic effect. The maximum changes occurring in an individual dog over the first 5 minutes were divided by the standard deviation derived from the entire group of tested animals and the four scores were added, resulting in a TTS for each individual dog. The TTS values for each dog were then summed to obtain an average TTS and SD for each peptide studied.

Molecule | in vivo heparin reversal (summary) ([1]; dogs, standard heparin) | Percent reversal of heparin anticoagulation, ACT ([1]; dogs, 3 min post-administration) [%] | Percent reversal of heparin anticoagulation, ACT ([1]; dogs, 30 min) [%] | Percent reversal of heparin anticoagulation, APTT ([1]; same study, 3 min) [%] | Percent reversal of heparin anticoagulation, FNa ([1]; same study, 3 min) [%] | Percent reversal of heparin anticoagulation, FXa ([1]; same study, 3 min) [%] | Percent reversal of heparin anticoagulation, PT ([1]; same study, 3 min) [%] | Percent reversal of heparin anticoagulation, TCT ([1]; same study, 3 min) [%] | Percent reversal of heparin anticoagulation, APTT ([1]; same study, 30 min) [%] | Percent reversal of heparin anticoagulation, FXa ([1]; same study, 30 min) [%] | Percent reversal of heparin anticoagulation, PT ([1]; same study, 30 min) [%] | Percent reversal of heparin anticoagulation, TCT ([1]; same study, 30 min) [%] | platelet counts [2] | Maximal thrombocytopenia [3] [%] | ΔHR [4] | ΔMAP [4] | average total toxicity score (TTS±SD) [4] | ΔCO [4] [%] | ΔVO2 [4] [%]
PK4 S3 KPVK6 PKVSK6 G2 K4 [[+21]] | nearly complete reversal | 81 | 85 | 88 | 59 | 55 | 97 | 91 | 85 | 49 | 93 | 79 | thrombocytopenia | -43 | -21 | -35 | -6.9±3.8 | -44 | -38
NCCCC[C@H](NC(=O)[C@H](CCCCN)NC(=O)[C@H](CCCCN)NC(=O)[C@H](CCCCN)NC(=O)CNC(=O)CNC(=O)[C@H](CCCCN)NC(=O)[C@H](CCCCN)NC(=O)[C@H](CCCCN)NC(=O)[C@H](CCCCN)NC(=O)CNC(=O)CNC(=O)[C@H](CCCCN)NC(=O)[C@H](CCCCN)NC(=O)[C@H](CCCCN)NC(=O)[C@H](CCCCN)NC(=O)CNC(=O)CNC(=O)[C@H](CCCCN)NC(=O)[C@H](CCCCN)NC(=O)[C@H](CCCCN)NC(=O)[C@H](CCCCN)NC(=O)CNC(=O)CNC(=O)[C@H](CCCCN)NC(=O)[C@H](CCCCN)NC(=O)[C@H](CCCCN)NC(=O)[C@H](CCCCN)NC(=O)[C@@H]1CCCN1)C(=O)O [[+20], P(K4 G2)4 K4] (H-PKKKKGGKKKKGGKKKKGGKKKKGGKKKK-OH) |  |  |  |  |  |  |  |  |  |  |  |  | thrombocytopenia |  | -38 | -31 | -6.1±3.5 | -40 | -31
